Assay results from PMC10020352 (Frontiers in Pharmacology, 2023).
Where two headings read alike, the source gives them in different places. Where a SMILES comes first, the peptide text is derived from it. [ ]: non-standard residue; d: D form. Phe(4-NO2) = N[C@@H](Cc1ccc([N+](=O)[O-])cc1)C(=O)O; Phe(4-Cl) = N[C@@H](Cc1ccc(Cl)cc1)C(=O)O; NMeR = CN[C@@H](CCCNC(=N)N)C(=O)O; Aoc = NCCCCCCCC(=O)O; Sar = CNCC(=O)O

Experiments:
[1] = target: T1, MOP receptor (Homo sapiens, UniProt P35372); test: cell-based
T1 construct: expressed in transfected cells; host or cells: HEK293

[2] = target: T2, DOP receptor (Homo sapiens, UniProt P41143); test: cell-based
T2 construct: expressed in transfected cells; host or cells: HEK293

[3] = target: T3, bovine pancreatic trypsin (Bos taurus, UniProt P00760); test: Metabolic stability in trypsin; type: in vitro ADME; details: bovine pancreatic trypsin 2.5 μg/mL, pH 8-8.5, 37°C, peptide 100 μM; read-out: Stability (t1/2) Trypsin
T3 sequence (P00760 24-246): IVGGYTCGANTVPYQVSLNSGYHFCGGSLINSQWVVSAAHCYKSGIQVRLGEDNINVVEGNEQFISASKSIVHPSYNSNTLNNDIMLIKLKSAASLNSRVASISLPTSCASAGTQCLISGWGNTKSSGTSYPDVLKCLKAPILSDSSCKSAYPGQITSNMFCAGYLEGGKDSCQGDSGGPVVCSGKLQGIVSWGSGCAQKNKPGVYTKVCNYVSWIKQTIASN
Procedure: (§1) Whole blood was collected in-house from adult mixed-gender Wistar rats (RRID: RGD_150520162), and plasma was prepared in 0.2% EDTA as per standard practice. Peptides (final 100 μM) were incubated with pooled rat plasma at 37°C. Samples were collected at different time intervals 0, 5, 10, 15, 30, 60, and 120 min. At each time point, collected samples were immediately added to three volumes of cold ACN. This mixture was vortexed for 30 s and then centrifuged at room temperature (13 K rpm, 5 min). The supernatant was taken and directly placed in glass HPLC vials for LCMS analysis. The protocol for the trypsin stability assay was as for the plasma stability assay except for the […] (bovine pancreatic trypsin 2.5 μg/mL in NH4HCO3 buffer, approx. pH 8–8.5, 37°C).
(§2) Relative concentrations of each peptide from stability assays in plasma or trypsin were analysed using an Agilent binary LC system consisting of an Agilent 1290 Infinity LC pump, Agilent 1,290 auto-sampler coupled with Triple Quad Mass-Spectrometer (MS, model 6460, Agilent Technologies). A bidentate C18 HPLC column (Cogent, 100 Å, […]) with a binary solvent gradient composed of Solvent: A 0.1%v/v formic acid in MQ water and Solvent B: 0.1% v/v formic acid in ACN was used for the separation. The MS parameters were optimised for all compounds to obtain the highest signal in positive Total Ion Current (TIC) mode. Data were analysed using a combination of Microsoft Excel and GraphPad Prism software packages. Data was normalised to time point zero (immediately after compound addition) and expressed in percentages from t = 0. Half-lives were calculated in GraphPad Prism software (v8.3).

[4] = tested on: pERK1/2 in HEK293-KOP receptor cells; type: cell-based
[5] = Metabolic stability in rat plasma; type: in vitro ADME; details: pooled rat plasma, 37°C, peptide 100 μM; for half-life: rat, plasma, read-out: Stability (t1/2) Plasma
Procedure: as §1, §2

[6] = target: T4, KOP receptor (Homo sapiens, UniProt P41145); type: cell-based
[7] = target: T4, KOP receptor; test: biochemical; type: binding
[8] = target: T4, KOP receptor; test: cell-based; type: cell-based
[9] = tested on: FCA model of inflammatory nociception; details: rat

T4 sequence (P41145 whole entry): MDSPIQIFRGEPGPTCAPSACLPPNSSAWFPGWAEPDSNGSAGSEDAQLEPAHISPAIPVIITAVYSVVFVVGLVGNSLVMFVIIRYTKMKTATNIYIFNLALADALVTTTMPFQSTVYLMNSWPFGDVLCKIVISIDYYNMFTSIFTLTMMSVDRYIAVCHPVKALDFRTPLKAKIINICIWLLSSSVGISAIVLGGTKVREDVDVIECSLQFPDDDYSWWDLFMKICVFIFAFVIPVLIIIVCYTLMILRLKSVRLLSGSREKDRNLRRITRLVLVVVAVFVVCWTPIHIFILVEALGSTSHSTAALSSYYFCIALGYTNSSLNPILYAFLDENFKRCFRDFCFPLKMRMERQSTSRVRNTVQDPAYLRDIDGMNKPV
T2 sequence (P41143 whole entry): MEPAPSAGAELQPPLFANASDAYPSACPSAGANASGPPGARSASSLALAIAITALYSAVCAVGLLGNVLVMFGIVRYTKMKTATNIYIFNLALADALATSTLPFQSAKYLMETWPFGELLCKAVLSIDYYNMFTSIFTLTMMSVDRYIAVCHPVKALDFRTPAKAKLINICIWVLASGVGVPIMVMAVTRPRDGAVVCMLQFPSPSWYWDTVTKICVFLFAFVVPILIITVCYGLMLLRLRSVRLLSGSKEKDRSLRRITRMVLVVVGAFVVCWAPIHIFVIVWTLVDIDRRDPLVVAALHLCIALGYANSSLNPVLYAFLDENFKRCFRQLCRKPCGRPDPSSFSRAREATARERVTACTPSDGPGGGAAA
T1 sequence (P35372 whole entry): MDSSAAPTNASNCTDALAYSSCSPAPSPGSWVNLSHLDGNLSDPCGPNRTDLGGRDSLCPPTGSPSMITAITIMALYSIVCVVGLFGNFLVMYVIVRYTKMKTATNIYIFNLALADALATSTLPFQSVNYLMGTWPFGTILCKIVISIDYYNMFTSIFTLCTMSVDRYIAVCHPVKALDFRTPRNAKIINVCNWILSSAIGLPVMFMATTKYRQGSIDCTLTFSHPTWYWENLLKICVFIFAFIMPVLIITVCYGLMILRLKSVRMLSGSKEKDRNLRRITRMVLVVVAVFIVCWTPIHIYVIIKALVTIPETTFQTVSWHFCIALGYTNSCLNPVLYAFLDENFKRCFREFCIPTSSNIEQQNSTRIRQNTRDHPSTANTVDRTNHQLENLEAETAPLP

SMILES | half-life [3] [min] | bias factor β (cAMP versus pERK) [4] | pERK1/2 expression / activity [4] | half-life [5] [min] | KOP receptor desensitisation (maximal cAMP effect after pre-treatment) [6] | Ki [7] [nM] | IC50 ([7]; IC50) [nM] | EC50 [8] [nM] | selectivity for KOP receptor over MOP receptor and DOP receptor [8] [fold] | paw withdrawal threshold in the contralateral (uninflamed, untreated) paw ([9]; in vivo) | EC50 [1] [nM] | EC50 [2] [nM] | other results
CC(C)C[C@H](NC(=O)[C@H](Cc1ccccc1)NC(=O)CNC(=O)CNC(=O)[C@@H](N)Cc1ccc(O)cc1)C(=O)N[C@@H](CCCNC(=N)N)C(=O)N[C@@H](CCCNC(=N)N)C(=O)O [Dyn 1-7, reference compound] | < 1 | bias towards pERK | time and concentration-dependent pERK expression | 8.1 | no discernible desensitisation |  |  |  |  |  |  |  | EC50 ([1]; read-out: Activity (EC50) MOP): 3740 nM; EC50 ([2]; read-out: Activity (EC50) DOP): 870 nM
CC(C)C[C@H](NC(=O)[C@H](Cc1ccc([N+](=O)[O-])cc1)NC(=O)CN(C)C(=O)[C@@H](N)Cc1ccc(O)cc1)C(=O)N[C@@H](CCCNC(=N)N)C(=O)N[C@H](CCCNC(=N)N)C(N)=O [KA204] (H-Y[Sar][Phe(4-NO2)]LR[dR]-NH2) | 15.4 |  |  | > 60 |  | 2.8 | 30.2 | 7.5 | > 1000 | not observed | > 10000 | > 10000 | IC50 [7]: 30.2 nM; Stability (t1/2) Plasma [5]: 71 min
CC(C)C[C@H](NC(=O)[C@H](Cc1ccc(Cl)cc1)NC(=O)CN(C)C(=O)[C@@H](N)Cc1ccc(O)cc1)C(=O)N[C@@H](CCCNC(=N)N)C(=O)N[C@H](CCCNC(=N)N)C(=O)NCCCCCCCC(N)=O [KA305] (H-Y[Sar][Phe(4-Cl)]LR[dR][Aoc]-NH2) | 4.9 | bias towards cAMP | influenced pERK induction at higher concentrations |  | modest but significant desensitisation |  |  |  |  | not observed |  |  | Log IC50 [7]: -7.14; binding affinity to KOP receptor (in words) [7]: strong binders; IC50 ([7]; read-out: IC50): 72.6 nM; inhibition of peptide cAMP modulation by naloxone [8]: significantly blocked; overall efficacy (AUC of in vivo effect) [9]: significantly better efficacy than U50488H; Efficacy Index (Ie) ([9]; in vivo): statistically significant higher Ie over morphine; antinociceptive activity (paw withdrawal threshold) ([9]; in vivo): showed antinociceptive activity; effect of naloxone on peptide-induced antinociception ([9]; in vivo): blocked by pre-administration of naloxone; effect on oedema of the affected paw ([9]; in vivo): without effecting oedema
CC(C)C[C@H](NC(=O)[C@H](Cc1ccc([N+](=O)[O-])cc1)NC(=O)CN(C)C(=O)[C@@H](N)Cc1ccc(O)cc1)C(=O)N(C)[C@@H](CCCNC(=N)N)C(=O)N(C)[C@@H](CCCNC(=N)N)C(N)=O [KA311] (H-Y[Sar][Phe(4-NO2)]L[NMeR][NMeR]-NH2) | > 1000 |  |  |  |  | 180 | 1950 | 31 | > 1000 | not observed | > 10000 | > 10000 | 
